Source: US12336981B2, “Compounds and compositions for the inhibition of NAMPT” (Valo Health, Inc., priority 2010, dated 2025)
Where two headings read alike, the source gives them in different places.

What was measured:
A2780 cells = assay: In-vitro cell proliferation assay (SRB), A2780 cells; format: cell-based; conditions: Homo sapiens, A2780, 72 h, A2780 cells, 72 hours, read-out: A2780 IC50
In short: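 Cells were plated overnight at 37° C., 5% CO2, then exposed to serially diluted compounds (0.1% DMSO final) for 72 hours. Viable cells were measured by sulforhodamine B staining after TCA fixation, read at 570 nm; media-only background was subtracted before % inhibition was calculated.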

NAMPT = molecular target: T1, NAMPT (Homo sapiens, UniProt P43490); assay: Biochemical inhibition assay: NAMPT enzymatic reaction, NMN quantified by mass spectrometry; conditions: read-out: Biochem IC50
T1 construct: His tag; host or cells: E. coli
T1 sequence (P43490 whole entry): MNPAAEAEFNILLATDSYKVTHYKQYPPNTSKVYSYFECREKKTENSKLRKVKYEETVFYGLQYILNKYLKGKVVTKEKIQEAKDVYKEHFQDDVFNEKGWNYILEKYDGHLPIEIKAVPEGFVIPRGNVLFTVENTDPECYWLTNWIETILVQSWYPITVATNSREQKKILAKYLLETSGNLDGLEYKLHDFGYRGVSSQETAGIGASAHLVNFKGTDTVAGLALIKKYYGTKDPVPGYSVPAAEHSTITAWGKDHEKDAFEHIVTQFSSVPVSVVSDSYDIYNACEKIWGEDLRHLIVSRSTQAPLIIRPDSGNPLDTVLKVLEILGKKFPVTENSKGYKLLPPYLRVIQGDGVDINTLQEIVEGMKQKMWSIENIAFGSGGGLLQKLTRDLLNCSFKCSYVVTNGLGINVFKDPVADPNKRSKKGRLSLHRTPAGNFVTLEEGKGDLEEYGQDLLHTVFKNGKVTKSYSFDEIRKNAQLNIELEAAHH
In short: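 Inhibition of E. coli-expressed His-tagged human NAMPT, measured as NMN formation by mass spectrometry after a 30 min room-temperature reaction containing 1 μM NAM, 100 μM PRPP and 2.5 mM ATP.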

SMILES | IC50 (A2780 cells; SRB) | IC50 (NAMPT; NAMPT enzymatic assay) | IC50 (A2780 cells; SRB assay) | IC50 (NAMPT; NAMPT enzymatic reaction)
O=C(NCc1ccc(S(=O)(=O)c2cccc3cccnc23)cc1)c1cnc2[nH]ncc2c1 [N-{[4-(quinoline-8-sulfonyl)phenyl]methyl}-1H-pyrazolo[3,4-b]pyridine-5-carboxamide] | 23.6 nM | 45.5 nM |  | 
O=C(NCc1ccc(S(=O)(=O)c2cccc(-c3ccc(F)c(F)c3)n2)cc1)c1ccc2nccn2c1 [N-({4-[6-(3,4-difluorophenyl)pyridine-2-sulfonyl]phenyl}methyl)imidazo[1,2-a]pyridine-6-carboxamide] | 5.7 nM | 4.3 nM |  | 
O=C(NCc1ccc(S(=O)(=O)c2ccc(C(F)(F)F)cc2F)cc1)c1cc2cnccc2[nH]1 [N-[(4-{[2-fluoro-4-(trifluoromethyl)benzene]sulfonyl}phenyl)methyl]-1H-pyrrolo[3,2-c]pyridine-2-carboxamide] | 28.1 nM | 80.2 nM |  | 
CCCn1cc(S(=O)(=O)c2ccc(CNC(=O)c3cc4cnccc4[nH]3)cc2)cn1 [N-{[4-(1-propyl-1H-pyrazole-4-sulfonyl)phenyl]methyl}-1H-pyrrolo[3,2-c]pyridine-2-carboxamide] | 5.9 nM | 14.9 nM |  | 
O=C(NCc1ccc(S(=O)(=O)c2ccc(-n3cccn3)cc2)cc1)c1cc2ccncc2o1 | 7.3 nM | 4.1 nM |  | 
O=C(NCc1ccc(S(=O)(=O)c2cncc(C(F)(F)F)c2)cc1)c1cnc2[nH]ncc2c1 [N-({4-[5-(trifluoromethyl)pyridine-3-sulfonyl]phenyl}methyl)-1H-pyrazolo[3,4-b]pyridine-5-carboxamide] | 4 nM | 11 nM |  | 
COc1ccc(Cl)cc1S(=O)(=O)c1ccc(CNC(=O)c2cc3cnccc3[nH]2)cc1 [N-({4-[(5-chloro-2-methoxybenzene)sulfonyl]phenyl}methyl)-1H-pyrrolo[3,2-c]pyridine-2-carboxamide] |  |  | 2 nM | 6 nM
O=C(NCc1ccc(S(=O)(=O)c2cccc3c2OCC3)cc1)c1ccc2nccn2c1 [N-{[4-(2,3-dihydro-1-benzofuran-7-sulfonyl)phenyl]methyl}imidazo[1,2-a]pyridine-6-carboxamide] | 6.4 nM | 12.5 nM |  | 
Cc1nc(S(=O)(=O)c2ccc(CNC(=O)c3cnc4nccn4c3)cc2)cs1 [N-{[4-(2-methyl-1,3-thiazole-4-sulfonyl)phenyl]methyl}imidazo[1,2-a]pyrimidine-6-carboxamide] | 1000 to 10000 nM | 28.6 nM |  | 
CC(C)COc1cc(F)cc(S(=O)(=O)c2ccc(CNC(=O)c3cc4ccncc4s3)cc2)c1 | 7.5 nM | 4.8 nM |  | 
Cc1ccc(S(=O)(=O)c2ccc(CNC(=O)c3ccc4nccn4c3)cc2)cc1C [N-({4-[(3,4-dimethylbenzene)sulfonyl]phenyl}methyl)imidazo[1,2-a]pyridine-6-carboxamide] | 2.97 nM |  |  | 11.1 nM
Cc1cc(S(=O)(=O)c2ccc(CNC(=O)c3cc4ccncc4o3)cc2)ccc1F | 6 nM |  |  | 13.2 nM
O=C(NCc1ccc(S(=O)(=O)c2cccc(F)c2)cc1)c1cnc2[nH]ncc2c1 | 25.3 nM |  |  | 33.9 nM
O=C(NCc1ccc(S(=O)(=O)c2cc(OC(F)(F)F)ccc2Cl)cc1)c1cc2cnccc2[nH]1 [N-[(4-{[2-chloro-5-(trifluoromethoxy)benzene]sulfonyl}phenyl)methyl]-1H-pyrrolo[3,2-c]pyridine-2-carboxamide] | 12 nM | 53.1 nM |  | 
COc1ccc(F)cc1NS(=O)(=O)c1ccc(CN/C(=N\C#N)Nc2ccncc2)cc1 [(E)-2-cyano-3-({4-[(5-fluoro-2-methoxyphenyl)sulfamoyl]phenyl}methyl)-1-(pyridin-4-yl)guanidine] | 3 nM |  |  | 1.1 nM
CC(=O)c1cccc(S(=O)(=O)c2ccc(CNC(=O)c3ccc4nccn4c3)cc2)c1 [N-({4-[(3-acetylbenzene)sulfonyl]phenyl}methyl)imidazo[1,2-a]pyridine-6-carboxamide] | 6.37 nM |  |  | 12.5 nM
O=C(NCc1ccc(S(=O)(=O)c2ccc(OCC(F)(F)F)c(F)c2)cc1)c1cc2ccncc2o1 | 23.8 nM | 6.9 nM |  | 
O=C(NCc1ccc(S(=O)(=O)c2cncc(N3CCCC3)c2)cc1)c1cc2ccncc2o1 [N-({4-[5-(pyrrolidin-1-yl)pyridine-3-sulfonyl]phenyl}methyl)furo[2,3-c]pyridine-2-carboxamide] | 4.9 nM | 22.8 nM |  | 
O=C(NCc1ccc(S(=O)(=O)c2cccc(C(F)(F)F)c2)cc1)c1ccc2nccn2c1 [N-[(4-{[3-(trifluoromethyl)benzene]sulfonyl}phenyl)methyl]imidazo[1,2-a]pyridine-6-carboxamide] | 1.72 nM | 8.42 nM |  | 
CC(C)COc1cccc(S(=O)(=O)c2ccc(CNC(=O)c3cc4cnccc4[nH]3)cc2)c1 [N-[(4-{[3-(2-methylpropoxy)benzene]sulfonyl}phenyl)methyl]-1H-pyrrolo[3,2-c]pyridine-2-carboxamide] | 14.3 nM | 32.2 nM |  | 
COc1cc(S(=O)(=O)c2ccc(CNC(=O)c3cc4ccncc4s3)cc2)ccc1F [N-({4-[(4-fluoro-3-methoxybenzene)sulfonyl]phenyl}methyl)thieno[2,3-c]pyridine-2-carboxamide] | 3.1 nM |  |  | 9 nM
O=C(NCc1ccc(S(=O)(=O)c2ccc(C(F)(F)F)cc2C(F)(F)F)cc1)c1cnc2nccn2c1 | 96.4 nM | 18.8 nM |  | 
O=C(NCc1ccc(S(=O)(=O)c2ccccc2)cc1)c1[nH]c2ccncc2c1Br [N-{[4-(benzenesulfonyl)phenyl]methyl}-3-bromo-1H-pyrrolo[3,2-c]pyridine-2-carboxamide] |  |  | 7390 nM | 306 nM
O=C(NCc1ccc(S(=O)(=O)c2ccc(F)c(C(F)(F)F)c2)cc1)c1cnc2[nH]ncc2c1 [N-[(4-{[4-fluoro-3-(trifluoromethyl)benzene]sulfonyl}phenyl)methyl]-1H-pyrazolo[3,4-b]pyridine-5-carboxamide] | 13.8 nM | 39.4 nM |  | 
CC(C)Oc1ccc(S(=O)(=O)c2ccc(CNC(=O)c3cnc4[nH]ncc4c3)cc2)cc1 [N-[(4-{[4-(propan-2-yloxy)benzene]sulfonyl}phenyl)methyl]-1H-pyrazolo[3,4-b]pyridine-5-carboxamide] | 6.6 nM | 8 nM |  | 
O=C(NCc1ccc(S(=O)(=O)N2CCCCC2)cc1)c1cc2ccncc2[nH]1 [N-{[4-(piperidine-1-sulfonyl)phenyl]methyl}-1H-pyrrolo[2,3-c]pyridine-2-carboxamide] |  |  | 54 nM | 4 nM
CCOc1cc(F)ccc1S(=O)(=O)c1ccc(CNC(=O)c2cc3ccncc3s2)cc1 | 0.9 nM |  |  | 3.8 nM
CC(C)Oc1ccccc1NS(=O)(=O)c1ccc(CNC(=O)c2cc3cnccc3[nH]2)cc1 [N-[(4-{[2-(propan-2-yloxy)phenyl]sulfamoyl}phenyl)methyl]-1H-pyrrolo[3,2-c]pyridine-2-carboxamide] |  |  | 1 nM | 3 nM
COc1cc(F)ccc1NS(=O)(=O)c1ccc(CNC(=O)c2cc3cnccc3[nH]2)cc1 [N-({4-[(4-fluoro-2-methoxyphenyl)sulfamoyl]phenyl}methyl)-1H-pyrrolo[3,2-c]pyridine-2-carboxamide] |  |  | > 30000 nM | 3140 nM
CC(C)Oc1cccc(S(=O)(=O)c2ccc(CNC(=O)c3ccc4nccn4c3)cc2)c1F | 4 nM | 7.8 nM |  | 
